Active and inactive are the calls of the source. No cut-off for these calls is given here.
Columns and labels:
Malme-3M = assay: Growth inhibition of human MALME-3M cells at 10 uM after 48 hrs by sulforhodamine B assay; type: functional; settings: read-out: GI
LOX IMVI = assay: Growth inhibition of human LOXIMVI cells at 10 uM after 48 hrs by sulforhodamine B assay; type: functional; settings: read-out: GI
U-251 = assay: Growth inhibition of human U251 cells at 10 uM after 48 hrs by sulforhodamine B assay; type: functional
SNB-75 = assay: Growth inhibition of human SNB75 cells at 10 uM after 48 hrs by sulforhodamine B assay; type: functional; settings: SNB-75, 48 h, read-out: GI
SNB-19 = assay: Growth inhibition of human SNB19 cells at 10 uM after 48 hrs by sulforhodamine B assay; type: functional; settings: SNB-19, 48 h, read-out: GI
SF-539 = assay: Growth inhibition of human SF539 cells at 10 uM after 48 hrs by sulforhodamine B assay; type: functional
SF-295 = assay: Growth inhibition of human SF295 cells at 10 uM after 48 hrs by sulforhodamine B assay; type: functional
KM12 = assay: Growth inhibition of human KM12 cells at 10 uM after 48 hrs by sulforhodamine B assay; type: functional
SW-620 = assay: Growth inhibition of human SW620 cells at 10 uM after 48 hrs by sulforhodamine B assay; type: functional
HCT-15 = assay: Growth inhibition of human HCT15 cells at 10 uM after 48 hrs by sulforhodamine B assay; type: functional
HCT-116 = assay: Growth inhibition of human HCT116 cells at 10 uM after 48 hrs by sulforhodamine B assay; type: functional
HCC 2998 = assay: Growth inhibition of human HCC2998 cells at 10 uM after 48 hrs by sulforhodamine B assay; type: functional
COLO 205 = assay: Growth inhibition of human COLO205 cells at 10 uM after 48 hrs by sulforhodamine B assay; type: functional
NCI-H522 = assay: Growth inhibition of human NCI-H522 cells at 10 uM after 48 hrs by sulforhodamine B assay; type: functional; settings: NCI-H522, 48 h, read-out: GI
NCI-H460 = assay: Growth inhibition of human NCI-H460 cells at 10 uM after 48 hrs by sulforhodamine B assay; type: functional
NCI-H322M = assay: Growth inhibition of human NCI-H322M cells at 10 uM after 48 hrs by sulforhodamine B assay; type: functional
NCI-H23 = assay: Growth inhibition of human NCI-H23 cells at 10 uM after 48 hrs by sulforhodamine B assay; type: functional
NCI-H226 = assay: Growth inhibition of human NCI-H226 cells at 10 uM after 48 hrs by sulforhodamine B assay; type: functional
HOP-62 = assay: Growth inhibition of human HOP62 cells at 10 uM after 48 hrs by sulforhodamine B assay; type: functional
A549 = assay: Growth inhibition of human A549/ATCC cells at 10 uM after 48 hrs by sulforhodamine B assay; type: functional
SR = assay: Growth inhibition of human SR cells at 10 uM after 48 hrs by sulforhodamine B assay; type: functional; settings: read-out: GI
RPMI-8226 = assay: Growth inhibition of human RPMI8226 cells at 10 uM after 48 hrs by sulforhodamine B assay; type: functional
MOLT-4 = assay: Growth inhibition of human MOLT4 cells at 10 uM after 48 hrs by sulforhodamine B assay; type: functional; settings: MOLT-4, 48 h, read-out: GI
HL-60(TB) = assay: Growth inhibition of human HL-60(TB) cells at 10 uM after 48 hrs by sulforhodamine B assay; type: functional; settings: HL-60, 48 h, read-out: GI
MDA-MB-468 = assay: Growth inhibition of human MDA-MB-468 cells at 10 uM after 48 hrs by sulforhodamine B assay; type: functional
T47D = assay: Growth inhibition of human T47D cells at 10 uM after 48 hrs by sulforhodamine B assay; type: functional
BT-549 = assay: Growth inhibition of human BT549 cells at 10 uM after 48 hrs by sulforhodamine B assay; type: functional; settings: BT-549, 48 h, read-out: GI
MDA-MB-231 = assay: Growth inhibition of human MDA-MB-231 cells at 10 uM after 48 hrs by sulforhodamine B assay; type: functional
MCF7 = assay: Growth inhibition of human MCF7 cells at 10 uM after 48 hrs by sulforhodamine B assay; type: functional
DU-145 = assay: Growth inhibition of human DU145 cells at 10 uM after 48 hrs by sulforhodamine B assay; type: functional
PC-3 = assay: Growth inhibition of human PC3 cells at 10 uM after 48 hrs by sulforhodamine B assay; type: functional
TK-10 = assay: Growth inhibition of human TK10 cells at 10 uM after 48 hrs by sulforhodamine B assay; type: functional
SN12C = assay: Growth inhibition of human SN12C cells at 10 uM after 48 hrs by sulforhodamine B assay; type: functional
CAKI-1 = assay: Growth inhibition of human CAKI-1 cells at 10 uM after 48 hrs by sulforhodamine B assay; type: functional
A498 = assay: Growth inhibition of human A498 cells at 10 uM after 48 hrs by sulforhodamine B assay; type: functional
786-0 = assay: Growth inhibition of human 786-0 cells at 10 uM after 48 hrs by sulforhodamine B assay; type: functional; settings: 786-0, 48 h, read-out: GI
SK-OV-3 = assay: Growth inhibition of human SKOV3 cells at 10 uM after 48 hrs by sulforhodamine B assay; type: functional
NCI/ADR-RES = assay: Growth inhibition of human NCI-ADR-RES cells at 10 uM after 48 hrs by sulforhodamine B assay; type: functional
OVCAR-5 = assay: Growth inhibition of human OVCAR5 cells at 10 uM after 48 hrs by sulforhodamine B assay; type: functional
IGROV-1 = assay: Growth inhibition of human IGROV1 cells at 10 uM after 48 hrs by sulforhodamine B assay; type: functional
UACC-62 = assay: Growth inhibition of human UACC62 cells at 10 uM after 48 hrs by sulforhodamine B assay; type: functional
UACC-257 = assay: Growth inhibition of human UACC257 cells at 10 uM after 48 hrs by sulforhodamine B assay; type: functional
SK-MEL-5 = assay: Growth inhibition of human SK-MEL-5 cells at 10 uM after 48 hrs by sulforhodamine B assay; type: functional
SK-MEL-28 = assay: Growth inhibition of human SK-MEL-28 cells at 10 uM after 48 hrs by sulforhodamine B assay; type: functional, cell-based
SK-MEL-2 = assay: Growth inhibition of human SK-MEL-2 cells at 10 uM after 48 hrs by sulforhodamine B assay; type: functional
MDA-MB-435 = assay: Growth inhibition of human MDA-MB-435 cells at 10 uM after 48 hrs by sulforhodamine B assay; type: functional

## NS(=O)(=O)c1cnccc1N1CCN(c2ncccn2)CC1
Malme-3M
  inhibition of growth at 10 µM: 6%
LOX IMVI
  inhibition of growth at 10 µM: 4%
U-251
  growth inhibition (GI): inactive
SNB-75
  inhibition of growth at 10 µM: 11%
SNB-19
  inhibition of growth at 10 µM: 1%
SF-539
  growth inhibition (GI): inactive
SF-295
  growth inhibition (GI): inactive
KM12
  growth inhibition (GI): inactive
SW-620
  growth inhibition (GI): inactive
HCT-15
  growth inhibition (GI): inactive
HCT-116
  growth inhibition (GI): inactive
HCC 2998
  growth inhibition (GI): inactive
COLO 205
  growth inhibition (GI): inactive
NCI-H522
  inhibition of growth at 10 µM: 2%
NCI-H460
  growth inhibition (GI): inactive
NCI-H322M
  growth inhibition (GI): inactive
NCI-H23
  growth inhibition (GI): inactive
NCI-H226
  growth inhibition (GI): inactive
HOP-62
  growth inhibition (GI): inactive
A549
  growth inhibition (GI): inactive
SR
  inhibition of growth at 10 µM: 17%
RPMI-8226
  growth inhibition (GI): inactive
MOLT-4
  inhibition of growth at 10 µM: 6%
HL-60(TB)
  inhibition of growth at 10 µM: 9%
MDA-MB-468
  growth inhibition (GI): inactive
T47D
  growth inhibition (GI): inactive
BT-549
  inhibition of growth at 10 µM: 7%
MDA-MB-231
  growth inhibition (GI): inactive
MCF7
  growth inhibition (GI): inactive
DU-145
  growth inhibition (GI): inactive
PC-3
  growth inhibition (GI): inactive
TK-10
  growth inhibition (GI): inactive
SN12C
  growth inhibition (GI): inactive
CAKI-1
  growth inhibition (GI): inactive
A498
  growth inhibition (GI): inactive
786-0
  inhibition of growth at 10 µM: 1%
SK-OV-3
  growth inhibition (GI): inactive
NCI/ADR-RES
  growth inhibition (GI): inactive
OVCAR-5
  growth inhibition (GI): inactive
IGROV-1
  growth inhibition (GI): inactive
UACC-62
  growth inhibition (GI): inactive
UACC-257
  growth inhibition (GI): inactive
SK-MEL-5
  growth inhibition (GI): inactive
SK-MEL-28
  growth inhibition (GI): inactive
SK-MEL-2
  growth inhibition (GI): inactive
MDA-MB-435
  growth inhibition (GI): inactive

Reference: ChEMBL document CHEMBL2434896, “Carbonic anhydrase inhibitors. Synthesis of heterocyclic 4-substituted pyridine-3-sulfonamide derivatives and their inhibition of the human cytosolic isozymes I and II and transmembrane tumor-associated isozymes IX and XII” (Eur J Med Chem, 2013)
